Reference: patent US7999064B2 (Abbott Medical Optics Inc., priority 2009, dated 2011)

Test system: L929 cells
Type: cell-based
Procedure: A direct overlay method which has been adopted by the FDA for MPS registration was used to evaluate the cytotoxicity profile of the PQ1 formulations. In this method, previously-soaked contact lenses (in 100 ml of the solutions to simulate overnight soak) were directly overlayed on L929 cells. The cytotoxicity result was evaluated by scoring each culture under a microscope on a relative scale of 0-4.

## Polyquaternium-1 [30K PQ1]
  cytotoxicity score: 2
